Test results: US20260098061A1, “EPHA2-BINDING PENDING PEPTIDE AND COMPOSITION COMPRISING SAME” (PeptiDream Inc., priority 2022, published 2026)
Numbered stars: 1 amine (or outer) side, 2 acyl side, 3 side chain; on linkers, the order of the positions; unused ones are H or OH. Bridge positions count the residues as written; N and C are the ends. Square brackets hold non-standard residues; d marks the D form. Side chains are listed from the residue outwards. Peptide text beside a SMILES is read from it. * marks the point of attachment. Piperazinyl(4-CH2COOH) = O=C(O)CN1CCN(*)CC1; Trp(1-Me) = Cn1cc(C[C@H](N)C(=O)O)c2ccccc21; NMe3Pal = CN[C@@H](Cc1cccnc1)C(=O)O; NMeF = CN[C@@H](Cc1ccccc1)C(=O)O; NMeE = CN[C@@H](CCC(=O)O)C(=O)O; Aad = N[C@@H](CCCC(=O)O)C(=O)O; dAhp(2) = CCCCC[C@@H](N)C(=O)O; Chg = N[C@H](C(=O)O)C1CCCCC1; CO = O=C([*:1])[*:2]

Target: T1, Recombinant Human EphA2 Fc Protein (Homo sapiens, UniProt P29317)
T1 construct: purchased Elabscience
Test: SPR interaction analysis (Biacore T200), kinetics of peptides against EphA2
Format: binding
Settings: Recombinant Human EphA2 Fc Protein captured by Human Antibody Capture kit; single-cycle kinetics; 25° C.; HBS-P+ buffer with 1% DMSO
Summary of the method: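 On a Biacore T200 at 25° C, Fc-tagged human EphA2 was captured via anti-human antibody; peptides ran as five serial dilutions in HBS-P+ pH 7.4 with 1% DMSO by single-cycle kinetics. Baseline-subtracted data fitted for ka and kd, from which KD was derived.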

SMILES | Kd [nM]
CNC(=O)C[C@@H]1NC(=O)[C@H]([C@@H](C)O)NC(=O)[C@H](Cc2cn(C)c3ccccc23)NC(=O)[C@H](CCCCNC(=O)N2CCN(CC(=O)O)CC2)NC(=O)[C@H](Cc2cn(C)c3ccccc23)NC(=O)[C@H](CCC(=O)O)N(C)C(=O)[C@H](CCCC(N)=O)NC(=O)[C@H](CC(C)C)NC(=O)[C@H](CC(N)=O)NC(=O)[C@H](Cc2cccnc2)N(C)C(=O)[C@@H](C)NC(=O)CSC[C@@H](C(N)=O)NC1=O [PDC_EphA2-00018533, da-Me3Py-N-L-Hgn-MeE-W1Me-KCOpipzaa-W1Me-T-Nmm-C-NH2] ({CH2CO}-[dA][NMe3Pal]NL[Aad](NH2)[NMeE][Trp(1-Me)]K([CO-Piperazinyl(4-CH2COOH)])[Trp(1-Me)]TD(NHMe)C-NH2; thioether N-12) | < 1
CC(C)C[C@@H]1NC(=O)[C@H](CC(N)=O)NC(=O)[C@H](Cc2cccnc2)N(C)C(=O)[C@@H](C)NC(=O)CSC[C@@H](C(N)=O)NC(=O)[C@H](CC(=O)N(C)C)NC(=O)[C@H]([C@@H](C)O)NC(=O)[C@H](Cc2cn(C)c3ccccc23)NC(=O)[C@H](CCCCNC(=O)N2CCN(CC(=O)O)CC2)NC(=O)[C@H](Cc2cn(C)c3ccccc23)NC(=O)[C@H](CCC(=O)O)N(C)C(=O)[C@H](CCCC(N)=O)NC1=O [PDC_EphA2-00018534, da-Me3Py-N-L-Hgn-MeE-W1Me-KCOpipzaa-W1Me-T-Ndm-C-NH2] ({CH2CO}-[dA][NMe3Pal]NL[Aad](NH2)[NMeE][Trp(1-Me)]K([CO-Piperazinyl(4-CH2COOH)])[Trp(1-Me)]TD(NMe2)C-NH2; thioether N-12) | < 1
CCCCC[C@H]1NC(=O)CSC[C@@H](C(N)=O)NC(=O)[C@H](CCCC(N)=O)NC(=O)[C@H]([C@@H](C)O)NC(=O)[C@H](Cc2cn(C)c3ccccc23)NC(=O)[C@H](CCCCNC(=O)N2CCN(CC(=O)O)CC2)NC(=O)[C@H](Cc2cn(C)c3ccccc23)NC(=O)[C@H](Cc2ccccc2)N(C)C(=O)[C@H](CCCC(N)=O)NC(=O)[C@H](C2CCCCC2)NC(=O)[C@H](CC(N)=O)NC(=O)[C@H](Cc2cccnc2)N(C)C1=O [PDC_EphA2-00018535, dahp-Me3Py-N-Chg-Hgn-MeF-W1Me-KCOpipzaa-W1Me-T-Hgn-C-NH2] ({CH2CO}-[dAhp(2)][NMe3Pal]N[Chg][Aad](NH2)[NMeF][Trp(1-Me)]K([CO-Piperazinyl(4-CH2COOH)])[Trp(1-Me)]T[Aad](NH2)C-NH2; thioether N-12) | < 1

Continued, values first:

Kd [nM] | SMILES
< 1 | CNC(=O)C[C@@H]1NC(=O)[C@H](CC(C)C)NC(=O)[C@H](CC(N)=O)NC(=O)[C@H](Cc2cccnc2)N(C)C(=O)[C@@H](C)NC(=O)CSC[C@@H](C(N)=O)NC(=O)[C@H](CCCC(N)=O)NC(=O)[C@H]([C@@H](C)O)NC(=O)[C@H](Cc2cn(C)c3ccccc23)NC(=O)[C@H](CCCCNC(=O)N2CCN(CC(=O)O)CC2)NC(=O)[C@H](Cc2cn(C)c3ccccc23)NC(=O)[C@H](CCC(=O)O)N(C)C1=O [PDC_EphA2-00018531, da-Me3Py-N-L-Nmm-MeE-W1Me-KCOpipzaa-W1Me-T-Hgn-C-NH2] ({CH2CO}-[dA][NMe3Pal]NLD(NHMe)[NMeE][Trp(1-Me)]K([CO-Piperazinyl(4-CH2COOH)])[Trp(1-Me)]T[Aad](NH2)C-NH2; thioether N-12)
< 1 | CC(C)C[C@@H]1NC(=O)[C@H](CC(N)=O)NC(=O)[C@H](Cc2cccnc2)N(C)C(=O)[C@@H](C)NC(=O)CSC[C@@H](C(N)=O)NC(=O)[C@H](CCCC(N)=O)NC(=O)[C@H]([C@@H](C)O)NC(=O)[C@H](Cc2cn(C)c3ccccc23)NC(=O)[C@H](CCCCNC(=O)N2CCN(CC(=O)O)CC2)NC(=O)[C@H](Cc2cn(C)c3ccccc23)NC(=O)[C@H](CCC(=O)O)N(C)C(=O)[C@H](CC(=O)N(C)C)NC1=O [PDC_EphA2-00018532, da-Me3Py-N-L-Ndm-MeE-W1Me-KCOpipzaa-W1Me-T-Hgn-C-NH2] ({CH2CO}-[dA][NMe3Pal]NLD(NMe2)[NMeE][Trp(1-Me)]K([CO-Piperazinyl(4-CH2COOH)])[Trp(1-Me)]T[Aad](NH2)C-NH2; thioether N-12)
